In ChEMBL document CHEMBL1134277, “N-[3-(2-Dimethylaminoethyl)-2-methyl-1H- indol-5-yl]-4-fluorobenzamide: a potent, selective, and orally active 5-HT(1F) receptor agonist potentially useful for migraine therapy” (J Med Chem, 2001):

Columns and labels:
[1] = Selectivity is the binding affinity towards human 5-HT1D receptor to that of human 5-HT1F receptor
[2] = Selectivity is the binding affinity towards human 5-HT1A receptor to that of human 5-HT1F receptor
[3] = Selectivity is the binding affinity towards human 5-HT1B receptor to that of human 5-HT1F receptor
[4] = target: T1, 5-hydroxytryptamine receptor 1F (Homo sapiens, UniProt P30939); experiment: Binding affinity towards human 5-hydroxytryptamine 1F receptor
T1 sequence (P30939 whole entry): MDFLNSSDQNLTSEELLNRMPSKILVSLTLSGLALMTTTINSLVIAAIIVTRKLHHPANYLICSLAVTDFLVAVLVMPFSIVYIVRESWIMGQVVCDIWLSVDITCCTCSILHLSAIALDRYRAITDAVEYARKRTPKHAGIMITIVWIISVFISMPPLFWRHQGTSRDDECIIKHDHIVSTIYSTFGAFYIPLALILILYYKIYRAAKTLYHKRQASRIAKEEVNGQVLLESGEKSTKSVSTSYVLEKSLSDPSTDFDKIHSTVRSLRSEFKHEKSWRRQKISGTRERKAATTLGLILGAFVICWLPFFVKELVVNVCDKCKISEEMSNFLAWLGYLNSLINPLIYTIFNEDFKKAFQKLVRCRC

[5] = target: T2, 5-hydroxytryptamine receptor 1F (Homo sapiens) (UniProt P30939); experiment: In vitro agonist potency against human 5-hydroxytryptamine 1F receptor; type: functional
T2 sequence (whole entry): T1 sequence (P30939 whole entry)

Compound: CN(C)CCc1c[nH]c2cccc(NC(=O)c3ccc(F)cc3)c12
- Selectivity [1]: 3
- Selectivity [2]: 3
- Selectivity [3]: 9
- Ki [4]: 3.8 nM

Compound: CNS(=O)(=O)Cc1ccc2[nH]cc(CCN(C)C)c2c1
- Emax [5]: 98%
